These results are taken from patent publication US20230081426A1, “COMPOUNDS AND METHODS FOR KRAS MODULATION AND INDICATIONS THEREFOR” (Plexxikon Inc., priority 2020, published 2023).

For experiment [1], the target named is T1, G12D-mutant human KRAS (amino acid residues 1-188) (Homo sapiens, UniProt P01116, G12D).
T1 construct: G12D or G12C-mutant human KRAS (amino acid residues 1-188) with FLAG tag; made in house; host or cells: E. coli
The experiment is described as follows: KRAS Binding Disruption Assay (AlphaScreen; biotinylated KRpep-2d analogue or RAF1-RBD), G12D. The settings on record: KRAS G12D; geometric mean; read-out: KRAS GMean IC50 (uM) MUTATION: G12D. The method, boiled down:
(§1)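 Compounds are titrated against 5-20 nM mutant KRAS and 5-20 nM of either a biotinylated KRpep-2d analogue or RAF1-RBD, incubated 1 h at 25° C. Disruption is detected as reduced Alpha signal after 1 h with donor and acceptor beads at 10 μg/mL.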
In general terms: Alpha assays give light when donor and acceptor beads are brought close together.

In experiment [2] the target is T2, G12C-mutant human KRAS (amino acid residues 1-188) (Homo sapiens, UniProt P01116, G12C).
T2 construct: G12D or G12C-mutant human KRAS (amino acid residues 1-188) with FLAG tag; made in house; host or cells: E. coli
T2 sequence (P01116 1-188 isoform P01116-2 G12C): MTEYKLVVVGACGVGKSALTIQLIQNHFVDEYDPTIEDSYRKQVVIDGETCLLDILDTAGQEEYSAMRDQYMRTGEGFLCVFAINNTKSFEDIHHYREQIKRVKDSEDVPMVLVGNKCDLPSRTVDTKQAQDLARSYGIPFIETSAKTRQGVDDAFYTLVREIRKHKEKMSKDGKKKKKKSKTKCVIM
Briefly: KRAS Binding Disruption Assay (AlphaScreen; biotinylated KRpep-2d analogue or RAF1-RBD), G12C. The note with it: geometric mean, read-out: KRAS GMean IC50 (uM) MUTATION: G12C. The method, boiled down:
as §1

T1 sequence (P01116 1-188 isoform P01116-2 G12D): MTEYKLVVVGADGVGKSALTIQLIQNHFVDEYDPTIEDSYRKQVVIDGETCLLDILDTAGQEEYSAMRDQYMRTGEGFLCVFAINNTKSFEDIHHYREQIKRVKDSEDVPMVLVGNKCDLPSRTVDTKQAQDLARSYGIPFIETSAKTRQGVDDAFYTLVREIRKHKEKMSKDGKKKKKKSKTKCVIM

As to `CC(C)(COc1nc(N2C[C@H]3CC[C@@H](C2)N3)c2ccc(-c3cc(O)cc4ccccc34)c(F)c2n1)NS(C)(=O)=O` [P-0718, N-(1-((4-((1R,5S)-3,8-diazabicyclo[3.2.1]octan-3-yl)-8-fluoro-7-(3-hydroxynaphthalen-1-yl)quinazolin-2-yl)oxy)-2-methylpropan-2-yl)methanesulfonamide], the IC50 – broadly, the concentration that gives 50% inhibition – lay in the range of 0.0001 to 10 µM in experiment [1] and 10 to 100 µM in experiment [2].
The matching figures for `CC(C)(CO)COc1nc(N2C[C@H]3CC[C@@H](C2)N3)c2ccc(-c3cc(O)cc4ccccc34)c(F)c2n1` [P-0719, 4-(4-((1R,5S)-3,8-diazabicyclo[3.2.1]octan-3-yl)-8-fluoro-2-(3-hydroxy-2,2-dimethylpropoxy)quinazolin-7-yl)naphthalen-2-ol]: 0.0001 to 10 µM and 0.0001 to 10 µM.
The matching figures for `COC(C)(C)COc1nc(N2C[C@H]3CC[C@@H](C2)N3)c2ccc(-c3cc(O)cc4ccccc34)c(F)c2n1` [P-0720, 4-(4-((1R,5S)-3,8-diazabicyclo[3.2.1]octan-3-yl)-8-fluoro-2-(2-methoxy-2-methylpropoxy)quinazolin-7-yl)naphthalen-2-ol]: 0.0001 to 10 µM and 10 to 100 µM.
For `Oc1cc(-c2ccc3c(N4C[C@H]5CC[C@@H](C4)N5)nc(OCC4(O)CCCC4)nc3c2F)c2ccccc2c1` [P-0721, 4-(4-((1R,5S)-3,8-diazabicyclo[3.2.1]octan-3-yl)-8-fluoro-2-((1-hydroxycyclopentyl)methoxy)quinazo-lin-7-yl)naphthalen-2-ol], the values for the IC50 in experiment [1] and in experiment [2] were 0.0001 to 10 µM and 10 to 100 µM, respectively.
Turning to `Oc1cc(-c2ccc3c(N4C[C@H]5CC[C@@H](C4)N5)nc(OCC4(O)CCC4)nc3c2F)c2ccccc2c1` [P-0722, 4-(4-((1R,5S)-3,8-diazabicyclo[3.2.1]octan-3-yl)-8-fluoro-2-((1-hydroxycyclobutyl)methoxy)quinazolin-7-yl)naphthalen-2-ol], the IC50 in experiment [1] is 0.0001 to 10 µM; in experiment [2], 10 to 100 µM.
As for `Fc1c(-c2c[nH]c3cccc(C(F)(F)F)c23)ccc2c(N3C[C@H]4CC[C@@H](C3)N4)nc(OCC34CCCN3CCC4)nc12` [P-0723, 4-((1R,5S)-3,8-diazabicyclo[3.2.1]octan-3-yl)-8-fluoro-2-((tetrahydro-1H-pyrrolizin-7a(5H)-yl)methoxy)-7-(4-(trifluoromethyl)-1H-indol-3-yl)quinazoline], the IC50 in experiment [1] and in experiment [2] was 0.0001 to 10 µM each time.
In the case of `CN1CCC[C@H]1COc1nc(N2C[C@H]3CC[C@@H](C2)N3)c2cc(F)c(-c3n[nH]c4ccc(F)cc34)c(F)c2n1` [P-0724, 4-((1R,5S)-3,8-diazabicyclo[3.2.1]octan-3-yl)-6,8-difluoro-7-(5-fluoro-1H-indazol-3-yl)-2-(((S)-1-methylpyrrolidin-2-yl)methoxy)quinazoline], the IC50 in experiment [1] was 10 to 100 µM; in experiment [2] it was 100 to 1000 µM.
The matching figures for `CN1CCC[C@H]1COc1nc(N2C[C@H]3CC[C@@H](C2)N3)c2cc(F)c(-c3n[nH]c4ccccc34)c(F)c2n1` [P-0725, 4-((1R,5S)-3,8-diazabicyclo[3.2.1]octan-3-yl)-6,8-difluoro-7-(1H-indazol-3-yl)-2-(((S)-1-methylpyrrolidin-2-yl)methoxy)quinazoline]: 10 to 100 µM and 100 to 1000 µM.
Turning to `CN1CCC[C@H]1COc1nc(N2C[C@H]3CC[C@@H](C2)N3)c2cc(F)c(-c3c[nH]c4ccc(F)cc34)c(F)c2n1` [P-0726, 4-((1R,5S)-3,8-diazabicyclo[3.2.1]octan-3-yl)-6,8-difluoro-7-(5-fluoro-1H-indol-3-yl)-2-(((S)-1-methylpyrrolidin-2-yl)methoxy)quinazoline], the IC50 was 0.0001 to 10 µM in experiment [1] and 10 to 100 µM in experiment [2].
`COc1cccc2ncnc(-c3ccc4c(N5C[C@H]6CC[C@@H](C5)N6)nc(OC[C@@H]5CCCN5C)nc4c3F)c12` [P-0727, 4′-((1R,5S)-3,8-diazabicyclo[3.2.1]octan-3-yl)-8′-fluoro-5-methoxy-2′-(((S)-1-methylpyrrolidin-2-yl)methoxy)-4,7′-biquinazoline]: the IC50 in experiment [1] and in experiment [2] was 100 to 1000 µM each time.
On to `CN1CCC[C@H]1COc1nc(N2C[C@H]3CC[C@@H](C2)N3)c2ccc(-c3nccc4cccc(Cl)c34)c(F)c2n1` [P-0728, 4-((1R,5S)-3,8-diazabicyclo[3.2.1]octan-3-yl)-7-(8-chloroisoquinolin-1-yl)-8-fluoro-2-(((S)-1-methylpyrrolidin-2-yl)methoxy)quinazoline], for which the IC50 lay in the range of 10 to 100 µM in experiment [1] and 100 to 1000 µM in experiment [2].
As to `CN1CCC[C@H]1COc1nc(N2C[C@H]3CC[C@@H](C2)N3)c2ccc(-c3c[nH]c4cccc(C(F)(F)F)c34)cc2n1` [P-0729, 4-((1R,5S)-3,8-diazabicyclo[3.2.1]octan-3-yl)-2-(((S)-1-methylpyrrolidin-2-yl)methoxy)-7-(4-(trifluoromethyl)-1H-indol-3-yl)quinazoline], the IC50 fell in the range of 0.0001 to 10 µM in experiment [1] and 10 to 100 µM in experiment [2].
The matching figures for `Fc1cc2c(N3C[C@H]4CC[C@@H](C3)N4)nc(OCC34CCCN3CCC4)nc2c(F)c1-c1c[nH]c2cccc(C3CC3)c12` [P-0730, 4-((1R,5S)-3,8-diazabicyclo[3.2.1]octan-3-yl)-7-(4-cyclopropyl-1H-indol-3-yl)-6,8-difluoro-2-((tetrahydro-1H-pyrrolizin-7a(5H)-yl)methoxy)quinazoline]: 0.0001 to 10 µM and 0.0001 to 10 µM.
`CCc1cccc2[nH]cc(-c3c(F)cc4c(N5C[C@H]6CC[C@@H](C5)N6)nc(OCC56CCCN5CCC6)nc4c3F)c12` [P-0731, 4-((1R,5S)-3,8-diazabicyclo[3.2.1]octan-3-yl)-7-(4-ethyl-1H-indol-3-yl)-6,8-difluoro-2-((tetrahydro-1H-pyrrolizin-7a(5H)-yl)methoxy)quinazoline]: the IC50 in experiment [1] and in experiment [2] was 0.0001 to 10 µM throughout.
For `NC(=O)COc1nc(N2C[C@H]3CC[C@@H](C2)N3)c2ccc(-c3cc(O)cc4ccccc34)c(F)c2n1` [P-0732, 2-((4-((1R,5S)-3,8-diazabicyclo[3.2.1]octan-3-yl)-8-fluoro-7-(3-hydroxynaphthalen-1-yl)quinazolin-2-yl)oxy)acetamide], the IC50 in experiment [1] was in the range of 0.0001 to 10 µM; in experiment [2], 10 to 100 µM.
The matching figures for `CNC(=O)COc1nc(N2C[C@H]3CC[C@@H](C2)N3)c2ccc(-c3cc(O)cc4ccccc34)c(F)c2n1` [P-0733, 2-((4-((1R,5S)-3,8-diazabicyclo[3.2.1]octan-3-yl)-8-fluoro-7-(3-hydroxynaphthalen-1-yl)quinazolin-2-yl)oxy)-N-methylacetamide]: 0.0001 to 10 µM and 10 to 100 µM.
For the compound `Oc1cc(-c2ccc3c(N4C[C@H]5CC[C@@H](C4)N5)nc(OCC4(O)CC4)nc3c2F)c2ccccc2c1` [P-0734, 4-(4-((1R,5S)-3,8-diazabicyclo[3.2.1]octan-3-yl)-8-fluoro-2-((1-hydroxycyclopropyl)methoxy)quinazo-lin-7-yl)naphthalen-2-ol], the IC50 fell in the range of 0.0001 to 10 µM in experiment [1] and 10 to 100 µM in experiment [2].
`CC(C)(COc1nc(N2C[C@H]3CC[C@@H](C2)N3)c2ccc(-c3cc(O)cc4ccccc34)c(F)c2n1)NC(=O)OCc1ccccc1` [P-0735, benzyl (1-((4-((1R,5S)-3,8-diazabicyclo[3.2.1]octan-3-yl)-8-fluoro-7-(3-hydroxynaphthalen-1-yl)quinazolin-2-yl)oxy)-2-methylpropan-2-yl)carbamate]: the values for the IC50 in experiment [1] and in experiment [2] were 0.0001 to 10 µM and 100 to 1000 µM, respectively.
The matching figures for `CN(C)C(C)(C)COc1nc(N2C[C@H]3CC[C@@H](C2)N3)c2ccc(-c3cc(O)cc4ccccc34)c(F)c2n1` [P-0736, 4-(4-((1R,5S)-3,8-diazabicyclo[3.2.1]octan-3-yl)-2-(2-(dimethylamino)-2-methylpropoxy)-8-fluoroquinazolin-7-yl)naphthalen-2-ol]: 0.0001 to 10 µM and 10 to 100 µM.
The matching figures for `Fc1cc2c(N3C[C@H]4CC[C@@H](C3)N4)nc(OCC34CCCN3CCC4)nc2c(F)c1-c1c[nH]c2cccc(C(F)(F)F)c12` [P-0737, 4-((1R,5S)-3,8-diazabicyclo[3.2.1]octan-3-yl)-6,8-difluoro-2-((tetrahydro-1H-pyrrolizin-7a(5H)-yl)methoxy)-7-(4-(trifluoromethyl)-1H-indol-3-yl)quinazoline]: 0.0001 to 10 µM and 0.0001 to 10 µM.
Regarding `Oc1cc(-c2ccc3c(N4C[C@H]5CC[C@@H](C4)N5)nc(OCC4CCC(F)(F)C4)nc3c2F)c2ccccc2c1` (stereo partly drawn) [P-0738, 4-(4-((1R,5S)-3,8-diazabicyclo[3.2.1]octan-3-yl)-2-((3,3-difluorocyclopentyl)methoxy)-8-fluoroquinazolin-7-yl)naphthalen-2-ol], the values for the IC50 in experiment [1] and in experiment [2] were 0.0001 to 10 µM and 10 to 100 µM, respectively.
The matching figures for `Oc1cc(-c2ccc3c(N4C[C@H]5CC[C@@H](C4)N5)nc(OCC4CCCC4(F)F)nc3c2F)c2ccccc2c1` (stereo partly drawn) [P-0739, 4-(4-((1R,5S)-3,8-diazabicyclo[3.2.1]octan-3-yl)-2-((2,2-difluorocyclopentyl)methoxy)-8-fluoroquinazolin-7-yl)naphthalen-2-ol]: 0.0001 to 10 µM and 10 to 100 µM.
The matching figures for `Oc1cc(-c2ccc3c(N4C[C@H]5CC[C@@H](C4)N5)nc(OCC4CC(F)(F)C4(F)F)nc3c2F)c2ccccc2c1` (stereo partly drawn) [P-0740, 4-(4-((1R,5S)-3,8-diazabicyclo[3.2.1]octan-3-yl)-8-fluoro-2-((2,2,3,3-tetrafluorocyclobutyl)methoxy)quinaz-olin-7-yl)naphthalen-2-ol]: 0.0001 to 10 µM and 10 to 100 µM.
